According to patent publication US6372466B1, “C-4 specific sulfotransferase” (Seikagaku Corporation, priority 1998, dated 2002):
Entries after “also recorded” stand apart in the source; their conditions may differ.

Columns and labels:
Type in all cases: biochemical, rat
[1] = test system: G4ST; assay: G4ST enzymatic activity assay ([35S]PAPS sulfate transfer to chondroitin)
Protocol: The activities of G4ST and C6ST were assayed in accordance with the method of Habuchi, O. et al. (Habuchi, O., Matsui, Y., Kotoya, Y., Aoyama, Y., Yasuda, Y., and Noda, M., (1993) J. Biol. Chem., 268, 21968-21974). The reaction mixture contained imidazole hydrochloride (2.5 μmol, pH 6.8), protamine chloride (1.25 μg), dithiothreitol (0.1 μmol), chondroitin (25 nmol as glucuronic acid, derived from squid skin, prepared by the method described in Habuchi, O. and Miyata, K. (1980) Biochim. Biophys. Acta 616, 208-217), [^35S]PAPS (50 pmol: about 5.0×10^5 cpm: prepared by the method of Delfert, D. M., et al. (Delfert, D. M., and Conrad, H. E. (1985) Anal. Biochem. 148, 303-310)) and an enzyme in a final volume of 50 μl.
The above-mentioned reaction mixture was incubated at 37° C. for 20 minutes and immersed in a water bath kept at 100° C. for 1 minute to stop the enzymatic reaction. After the reaction was stopped, [^35S]-labeled chondroitin was isolated by desalting by gel chromatography using a Fast Desalting Column and precipitation with ethanol, and radioactivity was measured by the conventional manner.
To distinguish the activities of C6ST and G4ST one from another, [^35S]-labeled chondroitin was digested with chondroitinase ACII and unsaturated disaccharides (ΔDi-4S (2-acetamide-2-deoxy-3-O-(β-D-gluco-4-enepyranosyluronic acid)-4-O-sulfo-D-galactose) and ΔDi-6S (2-acetamide-2-deoxy-3-O-(β-D-gluco-4-enepyranosyluronic acid-6-O-sulfo-D-galactose)) were separated by paper chromatography (filter paper: Toyo No. 51A and solvent: 1-butanol/acetic acid/NH3 (1 M) (volume ratio 2:3:1)), the separated unsaturated disaccharides were visualized by irradiation of ultraviolet rays, the regions containing the disaccharides were cut out, and then radioactivities thereof were counted.
The amount of enzymatic activity required for transferring 1 pmol of a sulfate group for 1 minute under the conditions of 37° C. and pH 6.8 was defined as one unit as a unit of enzymatic activity.
Also, in the above-mentioned assay method for enzymatic activity, pH of imidazole hydrochloride buffer in the reaction mixture was varied (pH range: 6.3 to 7.6) and in addition, the buffer was replaced by one of buffers having various pH ranges (0.05 M, acetate buffer: pH 4.2 to 5.4, MES buffer: pH 5.4 to 6.8, Tris-HCl buffer: pH 7.2 to 9.0), and G4ST activity was assayed at each pH range (FIG. 6B).
In the above-mentioned assay method for enzymatic activity, the concentration of [^35S]PAPS in the reaction mixture was varied to measure the Km value of [^35S]PAPS as a sulfate group donor.

[2] = test system: G4ST; assay: Identification of the sulfate group-transferring site of G4ST (chondroitinase digestion, HPLC / Superdex 30); conditions: 35S-labeled by G4ST, digested with chondroitinase ACII, Partisil 10-SAX HPLC
Protocol: To identify the sulfate group-transferring. site of chondroitin and desulfated dermatan sulfate, ^35S-labeled glycosaminoglycan obtained by sulfotransfer reaction by G4ST was digested with chondroitinase ACII (manufactured by Seikagaku Corp.) or chondroitinase ABC (manufactured by Seikagaku Corp.) and the digestion products were analyzed by HPLC (high performance liquid chromatography). ^35S-Labeling was performed under the same conditions as the above-mentioned assay method for enzymatic activity except that the amount of protamine chloride was increased to 10 μg. The unsaturated disaccharides obtained by the digestion of ^35S-labeled chondroitin and ^35S-labeled desulfated dermatan sulfate with chondroitinase ACII or chondroitinase ABC were isolated by HPLC using a Partisil 10-SAX column (4.5 mm×25 cm: manufactured by Whatman) equiberated with KH2PO4 (35 mM). The column was eluted by concentration gradient of KH2PO4 under the conditions of a flow rate of 1 ml/minute and a column temperature of 40° C. to recover 0.5 ml of fractions.
Further, a Superdex 30 gel chromatography was performed using a digestion product obtained by digesting ^35S-labeled desulfated dermatan sulfate with chondroitinase ABC and chondroltinase ACII or chondroitinase ACII alone. […]
Target sequence in this assay (P69478 101-352 limits assumed): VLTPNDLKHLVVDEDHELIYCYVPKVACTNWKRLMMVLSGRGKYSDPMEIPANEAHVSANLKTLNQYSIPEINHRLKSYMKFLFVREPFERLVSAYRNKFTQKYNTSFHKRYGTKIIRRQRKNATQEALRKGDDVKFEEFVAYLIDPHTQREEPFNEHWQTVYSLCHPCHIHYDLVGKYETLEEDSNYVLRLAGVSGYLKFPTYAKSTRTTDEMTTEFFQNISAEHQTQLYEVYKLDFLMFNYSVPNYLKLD

[3] = test system: G4ST; assay: Substrate specificity of G4ST (sulfate transfer to glycosaminoglycans); conditions: for transfer of a sulfate group by G4ST to the glycosaminoglycan as acceptor: 25 nmol as galactosamine or glucosamine, replacing chondroitin in the reaction mixture
Protocol: According to the measurement method for enzymatic activity described above, the activity of G4ST of transferring a sulfate group to glycosaminoglycans other than chondroitin was measured. A reaction mixture used as a control of reaction was the reaction mixture described for the above-mentioned assay method for enzymatic activity (imidazole hydrochloride (2.5 μmol, pH 6.8), protamine chloride (1.25 μg), dithiothreitol (0.1 μmol), chondroitin (25 nmol as glucuronic acid), [^35S]PAPS (50 pmol: about 5.0×10^5 cpm), and an enzyme, total volume 50 μl) and the activity was measured by replacing the chondroitin contained in the above-mentioned reaction mixture as a control with (1) chondroitin sulfate A (derived from whale cartilage) (manufactured by Seikagaku Corp.), chondroitin sulfate C (derived from shark cartilage) (manufactured by Seikagaku Corp.), and chondroitin sulfate E (derived from squid cartilage) (prepared by the method described in Habuchi, O., Sugiura, K., Kawai, N. and Suzuki, S. (1977) J. Biol. Chem. 252, 4570-4576), (2) dermatan sulfate (derived from pig skin) (manufactured by Seikagaku Corp.), (3) desulfated dermatan sulfate (prepared by the method described by Nagasawa, et al. (Nagasawa, K., Inoue, Y., and Tokuyasu, T. (1995) J. Biochem. 86, 1323-1329)), (4) heparan sulfate (derived from bovine kidney) (manufactured by Seikagaku Corp.), (5) CDSNS-heparin (completely desulfated N-sulfated heparin: manufactured by Seikagaku Corp.), and (6) keratan sulfate (derived from bovine cornea) (manufactured by Seikagaku Corp.) ((1), (2) and (3) were each in an amount of 25 nmol as galactosamine, while (4), (5) and (6) were each in an amount of 25 nmol as glucosamine).
To identify a sulfate group receptor, the purified G4ST was allowed to react with various glycosaminoglycans in the presence of protamine chloride in various concentrations (FIG. 7). In FIG. 7, closed circles indicate the results on chondroitin, open circles indicates the results on desulfated dermatan sulfate, closed triangles indicate the results on chondroitin sulfate A, open triangles indicates the results on chondroitin sulfate C, and closed square indicate the results on dermatan sulfate.
Target sequence in this assay (P69478 101-352 limits assumed): as above

[4] = test system: G4ST; assay: G4ST enzymatic activity assay ([35S]PAPS sulfate transfer to chondroitin); conditions: protamine 0.25 mg/ml
Target sequence in this assay (P69478 101-352 limits assumed): as above

[5] = SH group-containing substance in the reaction mixture

| Molecule | effect on G4ST activity ([1]; metal ion 5 mM) | transfer of a sulfate group by G4ST to the glycosaminoglycan as acceptor [3] | other results |
| --- | --- | --- | --- |
| O[C@H](CS)[C@H](O)CS (racemic) [dithiothreitol] | – | – | effect on G4ST activity [1, 5]: enhanced the activity of G4ST |
| OCCS [2-mercaptoethanol] | – | – | effect on G4ST activity [1, 5]: enhanced the G4ST activity |
| [Ba+2] [Ba^2+] | activated; also recorded: enhanced | – | – |
| [Ca+2] [Ca^2+] | activated; also recorded: most activated; also recorded: enhanced | – | – |
| [Co+2] [Co^2+] | inhibit the activity of G4ST; also recorded: inhibited | – | – |
| [Fe+2] [Fe^2+] | activated; also recorded: enhanced | – | – |
| [Mg+2] [Mg^2+] | – | – | activating action on G4ST compared with other metal ions ([1]; concentration not printed for Mg2+): lowest in such an activating action |
| [Mn+2] [Mn^2+] | activated; also recorded: enhanced | – | – |
| Nc1ncnc2c1ncn2[C@@H]1O[C@H](COP(=O)(O)OS(=O)(=O)O)[C@@H](OP(=O)(O)O)[C@H]1O [PAPS, 3′-phosphoadenosine 5′-phosphosulfate] | – | – | Km ([1]; [35S]PAPS as sulfate group donor, concentration varied): 0.27 µM |
| [Sr+2] [Sr^2+] | activated; also recorded: enhanced | – | – |
| N[C@@H](CCC(=O)N[C@@H](CS)C(=O)NCC(=O)O)C(=O)O [reduced glutathione] | – | – | effect on G4ST activity [1, 5]: enhanced the G4ST activity |
| chondroitin | – | transfers a sulfate group | radioactivity in eluted fractions of ΔDi-4S [2]: radioactivity was detected only in the eluted fractions of ΔDi-4S; lowest protamine chloride concentration at which enhancement of activity was observed ([3]; protamine chloride in various concentrations): 0.25 mg/mL |
| chondroitin sulfate A | – | slight amount of activity; also recorded: transfers a sulfate group | – |
| chondroitin sulfate C | – | transfers a sulfate group | – |
| chondroitin sulfate E | – | transferred substantially no sulfate group | – |
| dermatan sulfate | – | transferred substantially no sulfate group | – |
| heparan sulfate | – | transferred substantially no sulfate group; also recorded: transfers substantially no sulfate group | – |
| keratan sulfate | – | transferred substantially no sulfate group | – |
| protamine | – | – | effect on G4ST activity [4]: activated; also recorded: enhanced |
